US8951964B2, “Phenanthridine macrocyclic hepatitis C serine protease inhibitors” (priority 2010, dated 2015)
pEC50: −log10 of the molar value. Where two headings read alike, the source gives them in different places.

How the values were obtained:
Type in all cases: cell-based, HCV
[1] = test system: genotype 1b replicon (1b-Con1, 1b-N); test: 1b stable replicon (luciferase reporter); conditions: HuH-7 cells, 5% FBS
[2] = test system: genotype 1b transient replicon; test: 1b transient replicon (luciferase reporter); conditions: HuH-7 cells, 5% FBS
[3] = test system: genotype 1a transient replicon (1a-H77); test: 1a transient replicon (luciferase reporter); conditions: HuH-7 cells, 5% FBS
[4] = test system: genotype 3a NS3 gene in transient replicon; test: 3a transient replicon (luciferase reporter); conditions: for EC50: Hepatitis C virus, Huh-7, read-out: 3a transient replicon (nM)
[5] = test system: genotype 1a replicon (1a-H77); test: 1a stable replicon (luciferase reporter); conditions: HuH-7 cells, 5% FBS
[6] = Hepatitis C virus, Huh-7, luciferase reporter

Row | SMILES | pEC50 ([1]; Hepatitis C virus) | pEC50 ([2]; Hepatitis C virus) | pEC50 ([3]; Hepatitis C virus) | EC50 [4] [nM] | pEC50 [5, 6] | pEC50 [1] | pEC50 [2] | pEC50 [3] | pEC50 ([4]; read-out: 3a transient replicon, luciferase reporter, HuH-7 cells, 5% FBS) | pEC50 ([5]; luciferase reporter)
1 | Cc1ccc(C(=O)N[C@H]2CCCCC/C=C\[C@@H]3C[C@@]3(C(=O)NS(=O)(=O)C3(C)CC3)NC(=O)[C@@H]3C[C@@H](Oc4nc5cc(F)ccc5c5ccccc45)CN3C2=O)o1 | 9.30 to 10.00 | 9.30 to 10.00 | 9.30 to 10.00 | < 1 | 9.00 to 9.30 |  |  |  |  | 
2 | Cc1cc(C(=O)N[C@H]2CCCCC/C=C\[C@@H]3C[C@@]3(C(=O)NS(=O)(=O)C3CC3)NC(=O)[C@@H]3C[C@@H](Oc4nc5cc(F)ccc5c5ccccc45)CN3C2=O)no1 | 9.30 to 10.00 |  |  | > 1 | 9.30 to 10.00 |  |  |  |  | 
3 | Cn1ccc(C(=O)N[C@H]2CCCCC/C=C\[C@@H]3C[C@@]3(C(=O)NS(=O)(=O)C3(C)CC3)NC(=O)[C@@H]3C[C@@H](Oc4nc5ccccc5c5cc(F)ccc45)CN3C2=O)n1 | 9.30 to 10.00 | 9.30 to 10.00 | 9.30 to 10.00 | 0.5 to 1 | 9.00 to 9.30 |  |  |  |  | 
4 | CC1(S(=O)(=O)NC(=O)[C@@]23C[C@H]2/C=C\CCCCC[C@H](NC(=O)[C@H](O)C(F)(F)F)C(=O)N2C[C@H](Oc4nc5cc(F)ccc5c5ccccc45)C[C@H]2C(=O)N3)CC1 | 9.30 to 10.00 | > 10.00 | > 10.00 | > 1 | 9.30 to 10.00 |  |  |  |  | 
5 | CC1(S(=O)(=O)NC(=O)[C@@]23C[C@H]2/C=C\CCCCC[C@H](NC(=O)c2ccns2)C(=O)N2C[C@H](Oc4nc5cc(F)ccc5c5ccccc45)C[C@H]2C(=O)N3)CC1 | 9.30 to 10.00 | 9.30 to 10.00 | > 10.00 | > 1 | 9.00 to 9.30 |  |  |  |  | 
6 | Cc1cc(C(=O)N[C@H]2CCCCC/C=C\[C@@H]3C[C@@]3(C(=O)NS(=O)(=O)C3CC3)NC(=O)[C@@H]3C[C@@H](Oc4nc5cc(F)c(F)cc5c5ccc(OC(F)(F)F)cc45)CN3C2=O)no1 | 9.00 to 9.30 | > 10.00 | > 10.00 | > 1 | 9.00 to 9.30 |  |  |  |  | 
7 | COc1ccc2c(c1)nc(O[C@@H]1C[C@H]3C(=O)N[C@]4(C(=O)NS(=O)(=O)C5(C)CC5)C[C@H]4/C=C\CCCCC[C@H](NC(=O)c4cc(C)on4)C(=O)N3C1)c1ccccc12 | 9.30 to 10.00 | 9.30 to 10.00 | > 10.00 | > 1 | 9.30 to 10.00 |  |  |  |  | 
8 | COc1ccc2c(c1)nc(O[C@@H]1C[C@H]3C(=O)N[C@]4(C(=O)NS(=O)(=O)C5CC5)C[C@H]4/C=C\CCCCC[C@H](NC(=O)c4cc(C)on4)C(=O)N3C1)c1ccc(F)cc12 | 9.30 to 10.00 |  |  | > 1 | 9.30 to 10.00 |  |  |  |  | 
9 | Cc1cc(C(=O)N[C@H]2CCCCC/C=C\[C@@H]3C[C@@]3(C(=O)NS(=O)(=O)C3(C)CC3)NC(=O)[C@@H]3C[C@@H](Oc4nc5ccccc5c5cc(F)ccc45)CN3C2=O)no1 | 9.30 to 10.00 |  |  | > 1 | 9.00 to 9.30 |  |  |  |  | 
10 | CC1(S(=O)(=O)NC(=O)[C@@]23C[C@H]2/C=C\CCCCC[C@H](NC(=O)c2cscn2)C(=O)N2C[C@H](Oc4nc5ccccc5c5cc(F)ccc45)C[C@H]2C(=O)N3)CC1 | 9.30 to 10.00 | 9.30 to 10.00 | 9.30 to 10.00 | > 1 | 9.00 to 9.30 |  |  |  |  | 
11 | CC1(S(=O)(=O)NC(=O)[C@@]23C[C@H]2/C=C\CCCCC[C@H](NC(=O)c2ccon2)C(=O)N2C[C@H](Oc4nc5cc(F)ccc5c5ccccc45)C[C@H]2C(=O)N3)CC1 | 9.30 to 10.00 | 9.30 to 10.00 | > 10.00 | 0.5 to 1 | 9.30 to 10.00 |  |  |  |  | 
12 | COc1ccc2c(c1)nc(O[C@@H]1C[C@H]3C(=O)N[C@]4(C(=O)NS(=O)(=O)C5CC5)C[C@H]4/C=C\CCCCC[C@H](NC(=O)c4ccn(C)n4)C(=O)N3C1)c1ccc(F)cc12 | 9.30 to 10.00 | 9.00 to 9.30 | 9.30 to 10.00 | 0.5 to 1 | 9.30 to 10.00 |  |  |  |  | 
13 | Cn1ccc(C(=O)N[C@H]2CCCCC/C=C\[C@@H]3C[C@@]3(C(=O)NS(=O)(=O)C3(C)CC3)NC(=O)[C@@H]3C[C@@H](Oc4nc5ccccc5c5ccc(F)cc45)CN3C2=O)n1 | > 10.00 | 9.30 to 10.00 | 9.30 to 10.00 | 0.5 to 1 | 9.30 to 10.00 |  |  |  |  | 
14 | CC1(S(=O)(=O)NC(=O)[C@@]23C[C@H]2/C=C\CCCCC[C@H](NC(=O)c2cscn2)C(=O)N2C[C@H](Oc4nc5cc(F)ccc5c5cc(F)ccc45)C[C@H]2C(=O)N3)CC1 | 9.30 to 10.00 | 9.30 to 10.00 | > 10.00 | > 1 | 9.00 to 9.30 |  |  |  |  | 
15 | O=C(N[C@H]1CCCCC/C=C\[C@@H]2C[C@@]2(C(=O)NS(=O)(=O)C2CC2)NC(=O)[C@@H]2C[C@@H](Oc3nc4cc(F)ccc4c4cc(F)ccc34)CN2C1=O)c1cscn1 [drawing 124] | 9.30 to 10.00 | 9.30 to 10.00 | 9.30 to 10.00 | > 1 | 9.00 to 9.30 |  |  |  |  | 
16 | CC1(S(=O)(=O)NC(=O)[C@@]23C[C@H]2/C=C\CCCCC[C@H](NC(=O)c2cncs2)C(=O)N2C[C@H](Oc4nc5ccccc5c5cc(F)ccc45)C[C@H]2C(=O)N3)CC1 | 9.30 to 10.00 | 9.30 to 10.00 | > 10.00 | > 1 | 9.00 to 9.30 |  |  |  |  | 

Row | SMILES | pEC50 ([1]; Hepatitis C virus) | pEC50 ([2]; Hepatitis C virus) | pEC50 ([3]; Hepatitis C virus) | EC50 [4] [nM] | pEC50 [5, 6] | pEC50 [1] | pEC50 [2] | pEC50 [3] | pEC50 ([4]; read-out: 3a transient replicon, luciferase reporter, HuH-7 cells, 5% FBS) | pEC50 ([5]; luciferase reporter)
17 | Cn1ccc(C(=O)N[C@H]2CCCCC/C=C\[C@@H]3C[C@@]3(C(=O)NS(=O)(=O)C3(C)CC3)NC(=O)[C@@H]3C[C@@H](Oc4nc5cc(F)ccc5c5ccccc45)CN3C2=O)n1 | 9.30 to 10.00 | 9.30 to 10.00 | 9.30 to 10.00 | 0.1 to 0.5 | 9.00 to 9.30 |  |  |  |  | 
18 | Cc1cc(C(=O)N[C@H]2CCCCC/C=C\[C@@H]3C[C@@]3(C(=O)NS(=O)(=O)C3CC3)NC(=O)[C@@H]3C[C@@H](Oc4nc5cc(OC(F)(F)F)ccc5c5ccccc45)CN3C2=O)no1 | 9.30 to 10.00 | > 10.00 | > 10.00 | 0.5 to 1 | 9.00 to 9.30 |  |  |  |  | 
19 | Cc1cc(C(=O)N[C@H]2CCCCC/C=C\[C@@H]3C[C@@]3(C(=O)NS(=O)(=O)C3CC3)NC(=O)[C@@H]3C[C@@H](Oc4nc5ccccc5c5cc(F)ccc45)CN3C2=O)no1 | 9.30 to 10.00 | 9.30 to 10.00 | > 10.00 | > 1 | 9.30 to 10.00 |  |  |  |  | 
20 | Cc1ccc(C(=O)N[C@H]2CCCCC/C=C\[C@@H]3C[C@@]3(C(=O)NS(=O)(=O)C3(C)CC3)NC(=O)[C@@H]3C[C@@H](Oc4nc5cc(F)ccc5c5ccccc45)CN3C2=O)s1 | 9.30 to 10.00 | 9.30 to 10.00 | 9.30 to 10.00 | < 1 | 9.00 to 9.30 |  |  |  |  | 
21 | CC1(S(=O)(=O)NC(=O)[C@@]23C[C@H]2/C=C\CCCCC[C@H](NC(=O)c2ccc(F)s2)C(=O)N2C[C@H](Oc4nc5cc(F)ccc5c5ccccc45)C[C@H]2C(=O)N3)CC1 | 9.30 to 10.00 | 9.30 to 10.00 | > 10.00 | > 1 | 9.00 to 9.30 |  |  |  |  | 
22 | Cn1ccc(C(=O)N[C@H]2CCCCC/C=C\[C@@H]3C[C@@]3(C(=O)NS(=O)(=O)C3CC3)NC(=O)[C@@H]3C[C@@H](Oc4nc5cccc(F)c5c5ccccc45)CN3C2=O)n1 | > 10.00 | 9.30 to 10.00 | 9.00 to 9.30 |  | 9.00 to 9.30 |  |  |  |  | 
23 | Cc1cc(C(=O)N[C@H]2CCCCC/C=C\[C@@H]3C[C@@]3(C(=O)NS(=O)(=O)C3CC3)NC(=O)[C@@H]3C[C@@H](Oc4nc5cccc(F)c5c5ccccc45)CN3C2=O)no1 | 9.30 to 10.00 | 9.30 to 10.00 | > 10.00 | > 1 | 9.00 to 9.30 |  |  |  |  | 
24 | O=C(N[C@H]1CCCCC/C=C\[C@@H]2C[C@@]2(C(=O)NS(=O)(=O)C2CC2)NC(=O)[C@@H]2C[C@@H](Oc3nc4cc(F)ccc4c4cc(F)ccc34)CN2C1=O)c1cscn1 [drawing 125] |  |  |  |  |  | 9.30 to 10.00 | 9.30 to 10.00 | 9.30 to 10.00 | < 9.00 | < 9.00
25 | O=C(N[C@H]1CCCCC/C=C\[C@@H]2C[C@@]2(C(=O)NS(=O)(=O)C2CC2)NC(=O)[C@@H]2C[C@@H](Oc3nc4ccccc4c4cc(F)ccc34)CN2C1=O)c1cncs1 | 9.30 to 10.00 | 9.30 to 10.00 | 9.30 to 10.00 | > 1 | 9.00 to 9.30 |  |  |  |  | 
26 | Cn1ccc(C(=O)N[C@H]2CCCCC/C=C\[C@@H]3C[C@@]3(C(=O)NS(=O)(=O)C3(C)CC3)NC(=O)[C@@H]3C[C@@H](Oc4nc5cc(F)ccc5c5cc(F)ccc45)CN3C2=O)n1 | > 10.00 | 9.30 to 10.00 | 9.30 to 10.00 |  | 9.30 to 10.00 |  |  |  |  | 
27 | COc1ccc2c(c1)c(O[C@@H]1C[C@H]3C(=O)N[C@]4(C(=O)NS(=O)(=O)C5CC5)C[C@H]4/C=C\CCCCC[C@H](NC(=O)c4cc(C)on4)C(=O)N3C1)nc1cc(F)ccc12 | 9.00 to 9.30 |  |  | > 1 | 9.00 to 9.30 |  |  |  |  | 
28 | Cn1ccc(C(=O)N[C@H]2CCCCC/C=C\[C@@H]3C[C@@]3(C(=O)NS(=O)(=O)C3CC3)NC(=O)[C@@H]3C[C@@H](Oc4nc5cc(F)ccc5c5ccccc45)CN3C2=O)n1 | > 10.00 | 9.30 to 10.00 | 9.30 to 10.00 |  | 9.30 to 10.00 |  |  |  |  | 
29 | Cc1cc(C(=O)N[C@H]2CCCCC/C=C\[C@@H]3C[C@@]3(C(=O)NS(=O)(=O)C3CC3)NC(=O)[C@@H]3C[C@@H](Oc4nc5ccccc5c5cccc(F)c45)CN3C2=O)no1 | 9.30 to 10.00 | 9.30 to 10.00 | > 10.00 | > 1 | 9.30 to 10.00 |  |  |  |  | 
30 | COc1ccc2c(c1)c(O[C@@H]1C[C@H]3C(=O)N[C@]4(C(=O)NS(=O)(=O)C5CC5)C[C@H]4/C=C\CCCCC[C@H](NC(=O)c4cc(C)on4)C(=O)N3C1)nc1cc(OC(F)(F)F)ccc12 | 9.30 to 10.00 | > 10.00 | > 10.00 | 0.5 to 1 | 9.00 to 9.30 |  |  |  |  | 
31 | Cn1ccc(C(=O)N[C@H]2CCCCC/C=C\[C@@H]3C[C@@]3(C(=O)NS(=O)(=O)C3CC3)NC(=O)[C@@H]3C[C@@H](Oc4nc5cc(OC(F)(F)F)ccc5c5ccccc45)CN3C2=O)n1 | > 10.00 | 9.30 to 10.00 | > 10.00 |  | > 10.00 |  |  |  |  | 
32 | Cn1ccc(C(=O)N[C@H]2CCCCC/C=C\[C@@H]3C[C@@]3(C(=O)NS(=O)(=O)C3CC3)NC(=O)[C@@H]3C[C@@H](Oc4nc5ccccc5c5cccc(F)c45)CN3C2=O)n1 | > 10.00 | 9.00 to 9.30 | 9.30 to 10.00 |  | 9.00 to 9.30 |  |  |  |  | 
